Tests used:
[1] = molecular target: T1, mGluR2 (Rattus norvegicus, UniProt P31421); format: biochemical
[2] = molecular target: T2, mGluR3 (Rattus norvegicus, UniProt P31422); format: cell-based; conditions: read-out: EC50 of glutamate-dependent decrease in ensemble FRET; HEK293T cells
[3] = molecular target: T2, mGluR3; format: biochemical; conditions: for average active state lifetime: 2 mM Ca2+ or 100 nM glutamate
[4] = molecular target: mGluR2 WT/YADA heterodimer (Rattus norvegicus, UniProt P31421, D295A/Y216A); assay: smFRET of mGluR2 WT/YADA heterodimers; format: biochemical; conditions: near-saturating glutamate for the WT subunit
Chain of mGluR2 WT/YADA heterodimer (P31421 19-872, stated change not applied): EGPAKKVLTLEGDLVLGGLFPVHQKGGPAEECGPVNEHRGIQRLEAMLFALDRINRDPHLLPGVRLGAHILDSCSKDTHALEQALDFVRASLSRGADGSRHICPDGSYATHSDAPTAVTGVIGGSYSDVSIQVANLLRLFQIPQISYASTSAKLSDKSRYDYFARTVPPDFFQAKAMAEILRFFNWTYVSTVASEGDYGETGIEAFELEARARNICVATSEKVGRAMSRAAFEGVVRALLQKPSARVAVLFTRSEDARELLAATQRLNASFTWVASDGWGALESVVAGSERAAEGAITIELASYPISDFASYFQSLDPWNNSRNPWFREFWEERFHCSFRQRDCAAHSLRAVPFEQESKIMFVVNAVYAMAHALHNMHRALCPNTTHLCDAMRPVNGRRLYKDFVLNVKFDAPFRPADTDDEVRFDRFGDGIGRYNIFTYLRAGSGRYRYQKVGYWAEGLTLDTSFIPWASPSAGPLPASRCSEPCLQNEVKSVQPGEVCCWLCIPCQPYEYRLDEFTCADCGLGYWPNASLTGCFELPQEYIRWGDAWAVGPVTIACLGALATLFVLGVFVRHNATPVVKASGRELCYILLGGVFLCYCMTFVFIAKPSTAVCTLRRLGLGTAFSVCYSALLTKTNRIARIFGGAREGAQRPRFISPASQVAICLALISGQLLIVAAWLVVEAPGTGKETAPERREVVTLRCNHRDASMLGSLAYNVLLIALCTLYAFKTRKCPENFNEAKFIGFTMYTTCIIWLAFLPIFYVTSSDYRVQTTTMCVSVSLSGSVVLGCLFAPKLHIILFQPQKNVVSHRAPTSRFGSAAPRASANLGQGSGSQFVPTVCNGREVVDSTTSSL
Chain of mGluR2 WT/YADA heterodimer (P31421 19-872 Y216A/D295A): as the sequence (P31421 19-872, stated change not applied) above, with Y198A, D277A counted along it

[5] = molecular target: mGluR2-YADA (Y216A and D295A) (Rattus norvegicus, UniProt P31421, D295A/Y216A); assay: smFRET of glutamate-insensitive mutant mGluR2-YADA; format: biochemical; conditions: 50 μM or 1 mM glutamate
Chain of mGluR2-YADA (Y216A and D295A) (P31421 19-872 Y216A/D295A): as the sequence (P31421 19-872, stated change not applied) above, with Y198A, D277A counted along it
Chain of mGluR2-YADA (Y216A and D295A) (P31421 19-872 Y216A/D295A): as the sequence (P31421 19-872, stated change not applied) above, with Y198A, D277A counted along it

[6] = molecular target: T1, mGluR2; format: cell-based; conditions: normalized to response to 1 mM glutamate

T1 sequence (P31421 19-872): as the sequence (P31421 19-872, stated change not applied) above
T1 sequence (P31421 19-872): as the sequence (P31421 19-872, stated change not applied) above
T2 sequence (P31422 23-879): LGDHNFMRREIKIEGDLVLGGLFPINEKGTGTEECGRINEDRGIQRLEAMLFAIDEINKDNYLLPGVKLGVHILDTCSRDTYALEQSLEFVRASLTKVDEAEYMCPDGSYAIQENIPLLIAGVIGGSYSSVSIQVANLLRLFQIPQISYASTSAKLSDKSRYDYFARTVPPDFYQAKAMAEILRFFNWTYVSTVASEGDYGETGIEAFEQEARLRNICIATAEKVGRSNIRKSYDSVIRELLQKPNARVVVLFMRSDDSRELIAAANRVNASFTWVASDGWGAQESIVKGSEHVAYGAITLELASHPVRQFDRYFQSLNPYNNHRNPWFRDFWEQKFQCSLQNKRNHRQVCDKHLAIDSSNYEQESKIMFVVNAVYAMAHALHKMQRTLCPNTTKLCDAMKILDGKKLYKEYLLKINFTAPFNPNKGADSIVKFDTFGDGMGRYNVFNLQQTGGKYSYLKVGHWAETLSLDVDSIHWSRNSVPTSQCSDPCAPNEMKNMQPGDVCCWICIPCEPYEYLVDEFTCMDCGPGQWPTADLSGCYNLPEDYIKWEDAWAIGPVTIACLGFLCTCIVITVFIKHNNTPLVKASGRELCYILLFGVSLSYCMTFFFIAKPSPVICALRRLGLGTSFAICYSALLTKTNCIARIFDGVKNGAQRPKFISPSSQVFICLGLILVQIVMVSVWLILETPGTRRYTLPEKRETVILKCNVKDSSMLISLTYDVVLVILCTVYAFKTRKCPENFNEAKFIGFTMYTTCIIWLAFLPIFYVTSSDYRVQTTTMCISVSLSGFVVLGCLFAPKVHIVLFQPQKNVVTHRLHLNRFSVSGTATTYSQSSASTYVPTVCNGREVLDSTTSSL
T2 sequence (P31422 23-879): as above

N[C@@H](CCC(=O)O)C(=O)O [glutamate]
maximal medium FRET occupancy ([1]; WT/WT homodimer): ~ 25%
EC50 [2]: 500 ± 200 nM
average active state lifetime [3]: 183 ms
occupancy of the medium FRET state [4]: ~ 55%
effect on the FRET histogram [5]: no effect

N[C@H](C(=O)O)C1[C@@H](C(=O)O)[C@@H]1C(=O)O (some centres unmarked) [DCG-IV]
share of distribution remaining in the high and medium FRET states ([1]; saturating concentrations (≥100 μM)): ~ 30%

[Ca+2] [Ca^2+]
effect on low FRET state occupancy ([3]; 0 glutamate): concentration-dependent increase in low FRET state occupancy
average active state lifetime [3]: 183 ms

N[C@@]1(C(=O)O)CO[C@H]2[C@H](C(=O)O)[C@H]21 [LY379268]
occupancy of the active (low FRET) state ([1]; saturating agonist, compared with glutamate): more complete occupancy of the active state than glutamate

COc1ccccc1Oc1ccc(N(Cc2cccnc2)S(=O)(=O)CC(F)(F)F)cc1 [LY48739, LY487379]
effect on relative occupancy of the low FRET state ([1]; in the presence of DCG-IV (1 μM)): increased the relative occupancy of the low FRET state
effect on DCG-IV response in ensemble FRET [6]: increases the apparent affinity and efficacy of DCG-IV

— paper PMC4597782 (Nature, 2015)
